The values that follow are results of earlier work, collected in publication PMC6105164 (Cancer Chemotherapy and Pharmacology, 2018).

The subject of one data set is prenylation of RAS. Also on record: method as in PMID 22020205, PMID 15084616, PMID 15459217. As to conditions: cited from earlier work.
For data set [1], the system named is patients with KRAS mutations. Also on record: method as in PMID 24024839, PMID 18316791, PMID 23182985. As to conditions: cited from earlier work.

As for `Cn1cncc1[C@@](N)(c1ccc(Cl)cc1)c1ccc2c(c1)c(-c1cccc(Cl)c1)cc(=O)n2C` [tipifarnib], the “activity in clinical trials” value in the data set on prenylation of RAS was “a little activity”.

Turning to panitumumab: EGF receptor inhibitor, the efficacy result in data set [1] is recorded as “a little efficacy”.
